Data from article PMC3095640, “Potent Host-Directed Small-Molecule Inhibitors of Myxovirus RNA-Dependent RNA-Polymerases” (PLoS ONE, 2011).
Where two headings read alike, the source gives them in different places.

Legend:
[1] = system: Influenza A/WSN; experiment: Virus yield reduction assay, influenza A/WSN; assay type: cell-based, influenza A strain WSN (H1N1)
[2] = system: SOI Influenza A/Mexico; experiment: Virus yield reduction assay, SOI influenza A/Mexico; assay type: cell-based, swine-origin influenza virus isolate S-OIV Mexico; conditions: genome copy numbers of released progeny particles by TaqMan RT-PCR
[3] = system: MuV (S. Africa); experiment: microbe, parasite or virus in culture; assay type: cell-based, mumps virus strain South Africa; conditions: Mumps orthorubulavirus; titered through plaque assaying
[4] = system: HPIV3; experiment: microbe, parasite or virus in culture; assay type: cell-based, human parainfluenzavirus type 3; conditions: Human respirovirus 3; titered through plaque assaying
[5] = system: vaccinia virus; assay type: cell-based; conditions: compared with activity against myxoviruses
[6] = Cytotoxicity (metabolic activity), Vero-Slam cells; assay type: cell-based; conditions: African green monkey, highest concentration assessed 75 µM, read-out: CC50, Toxicity, Metabolic activity
Method: (§1) A non-radioactive cytotoxicity assay (CytoTox 96 Non-Radioactive Cytotoxicity Assay, Promega) was employed to determine the metabolic activity of cell after exposure to the compound. In a 96-well plate format, 10,000 cells per well were incubated at 37°C for 24 hours in four replicates per concentration tested in the presence of compound in two-fold dilutions starting at 75 µM. Substrate was then added and color development measured at 490 nm using a BioRad plate reader. Values were calculated according to the formula [% toxicity = 100−((experimental-background)/(maximum(vehicle treated)-background)*100)]. Values were plotted in dose-response curves and, if applicable, CC50 concentrations calculated.

[7] = Cytotoxicity (metabolic activity), HT1080; assay type: cell-based; conditions: human, HT1080 cells, highest concentration assessed 75 µM
Method: as §1

[8] = Cytotoxicity (metabolic activity), CHO; assay type: cell-based, Rodent-Chinese hamster; conditions: Chinese hamster, CHO cells, highest concentration assessed 75 µM
Method: as §1

[9] = in vitro; assay type: cell-based, Avian-chicken; conditions: chicken; DF-1; highest concentration assessed 75 µM; read-out: CC50, Metabolic Activity
Method: as §1

[10] = system: Vero cells; experiment: Cell growth rates after compound wash-out; assay type: cell-based; conditions: 10 µM for 30 hours, 72-hour growth
Method: Vero cells were seeded at a density of 6×10^5 cells and incubated in the presence of 10 µM JMN3-003 or vehicle only for 30 hours at 37°C. Cells were then washed extensively and reseeded at a density of 1×10^5 cells per well, followed by continued incubation at 37°C and assessment of life/dead cell numbers every 24 hours using a Countess automated cell counter (Invitrogen). Cells were reseeded as before when fastest growing cultures approached confluency. Growth rates were calculated for each 24-hour time interval using the Prism software package (GraphPad Software Inc.) based on the formula Y = Y0*exp(K*X) with Y equaling life cell numbers, Y0 the Y value at the starting time (t0), and K the growth constant equaling ln(2)/doubling-time.

[11] = system: Influenza A/WSN; experiment: Immunodetection of virus-encoded influenza A/WSN M2; assay type: cell-based; conditions: 100 nM
Method: Aliquots with equal total concentrations of cleared lysates (20,000×g; 10 min; 4°C) were mixed with 2x-urea buffer (200 mM Tris, pH 6.8; 8 M urea; 5% sodium dodecyl sulfate (SDS); 0.1 mM EDTA; 0.03% bromphenol blue; 1.5% dithiothreitol) and denatured for 25 min at 50°C. Samples were then fractionated on 10% SDS-polyacrylamide gels, blotted to polyvinylidene difluoride (PVDF) membranes (Millipore) and subjected to enhanced chemiluminescence detection (Pierce) using specific antisera directed against phosphorylated or non-phosphorylated cdc2-cyclin B kinase (Cell Signaling Technology), GAPDH (Abcam), the cytosolic tail of the MeV F protein [81], or influenza A/WSN virus M2 (Thermo Scientific). Immunostained PVDF membranes were developed using a ChemiDoc XRS digital imaging system (Bio-Rad) and horseradish peroxidase conjugated anti-species IgG (mouse or rabbit) antibodies. For densitometry, signals were quantified using the QuantityOne software package (Bio-Rad).

[12] = system: MeV-Alaska particles; experiment: Virus pre-incubation (virucidal activity) assay; assay type: cell-based, measles virus; conditions: 1.0 µM for 60 minutes, diluted to 1.0 nM
[13] = system: MeV-Alaska; experiment: Post-infection time-of-addition assay; assay type: cell-based, measles virus; conditions: 1.0 µM added at times post-infection
[14] = system: MeV-Alaska; assay type: cell-based, measles virus; conditions: 100 nM, 40 hours
[15] = system: Influenza A/WSN; experiment: Quantitation of influenza A/WSN antigenome and released progeny genome copies; assay type: cell-based; conditions: MDCK cells, 24 hours
[16] = target: MeV RdRp (Measles morbillivirus (Measles virus), UniProt P12576); experiment: MeV minireplicon luciferase reporter assay; assay type: cell-based; conditions: BHK-T7 cells, 36 hours
Method: BSR T7/5 cells (5×10^5/well) were transfected with plasmid DNAs encoding MeV-L (0.24 µg), MeV-N (0.94 µg) or MeV-P (0.29 µg) and 2 µg of the MeV luciferase minigenome reporter plasmid. Control wells included identical amounts of reporter and helper plasmids but lacked the L-encoding plasmid. At the time of transfection, JMN3-003 was added as specified, while control wells received vehicle only for comparison. Thirty-six hours post-transfection, cells were lysed with Bright GLO lysis buffer and relative luciferase activities determined using the Britelite substrate and a luminescence counter as outlined above.

[17] = system: MeV-Alaska; experiment: In vitro virus adaptation (resistance induction); assay type: cell-based, measles virus; conditions: after 90 days of continued viral incubation
Method: Adaptations were carried out essentially as we have previously described. Briefly, Vero-SLAM cells were infected with MeV-Alaska at an MOI of […] and incubated in the presence of gradually increasing JMN3-003 concentrations starting at 0.5 µM. Equally infected cells treated with the virus polymerase targeted RdRp inhibitor AS-136A were examined in parallel. When cultures became over confluent, cells were reseeded for continued incubation in the presence of the same compound concentration as before. At detection of extensive cell-to-cell fusion, cell-associated viral particles were harvested, diluted 10-fold and used for parallel infections of fresh cell monolayers in the presence of compound at unchanged and doubled concentrations. Cultures treated with the highest compound concentrations in which virus-induced cytopathicity became detectable were used for further adaptation. The approach was terminated after 90 days of continued incubation or when virus-induced cytopathicity was readily detectable in the presence of 30 µM compound in accordance with previous results.

Chain of MeV RdRp (P12576 whole entry, change not shown): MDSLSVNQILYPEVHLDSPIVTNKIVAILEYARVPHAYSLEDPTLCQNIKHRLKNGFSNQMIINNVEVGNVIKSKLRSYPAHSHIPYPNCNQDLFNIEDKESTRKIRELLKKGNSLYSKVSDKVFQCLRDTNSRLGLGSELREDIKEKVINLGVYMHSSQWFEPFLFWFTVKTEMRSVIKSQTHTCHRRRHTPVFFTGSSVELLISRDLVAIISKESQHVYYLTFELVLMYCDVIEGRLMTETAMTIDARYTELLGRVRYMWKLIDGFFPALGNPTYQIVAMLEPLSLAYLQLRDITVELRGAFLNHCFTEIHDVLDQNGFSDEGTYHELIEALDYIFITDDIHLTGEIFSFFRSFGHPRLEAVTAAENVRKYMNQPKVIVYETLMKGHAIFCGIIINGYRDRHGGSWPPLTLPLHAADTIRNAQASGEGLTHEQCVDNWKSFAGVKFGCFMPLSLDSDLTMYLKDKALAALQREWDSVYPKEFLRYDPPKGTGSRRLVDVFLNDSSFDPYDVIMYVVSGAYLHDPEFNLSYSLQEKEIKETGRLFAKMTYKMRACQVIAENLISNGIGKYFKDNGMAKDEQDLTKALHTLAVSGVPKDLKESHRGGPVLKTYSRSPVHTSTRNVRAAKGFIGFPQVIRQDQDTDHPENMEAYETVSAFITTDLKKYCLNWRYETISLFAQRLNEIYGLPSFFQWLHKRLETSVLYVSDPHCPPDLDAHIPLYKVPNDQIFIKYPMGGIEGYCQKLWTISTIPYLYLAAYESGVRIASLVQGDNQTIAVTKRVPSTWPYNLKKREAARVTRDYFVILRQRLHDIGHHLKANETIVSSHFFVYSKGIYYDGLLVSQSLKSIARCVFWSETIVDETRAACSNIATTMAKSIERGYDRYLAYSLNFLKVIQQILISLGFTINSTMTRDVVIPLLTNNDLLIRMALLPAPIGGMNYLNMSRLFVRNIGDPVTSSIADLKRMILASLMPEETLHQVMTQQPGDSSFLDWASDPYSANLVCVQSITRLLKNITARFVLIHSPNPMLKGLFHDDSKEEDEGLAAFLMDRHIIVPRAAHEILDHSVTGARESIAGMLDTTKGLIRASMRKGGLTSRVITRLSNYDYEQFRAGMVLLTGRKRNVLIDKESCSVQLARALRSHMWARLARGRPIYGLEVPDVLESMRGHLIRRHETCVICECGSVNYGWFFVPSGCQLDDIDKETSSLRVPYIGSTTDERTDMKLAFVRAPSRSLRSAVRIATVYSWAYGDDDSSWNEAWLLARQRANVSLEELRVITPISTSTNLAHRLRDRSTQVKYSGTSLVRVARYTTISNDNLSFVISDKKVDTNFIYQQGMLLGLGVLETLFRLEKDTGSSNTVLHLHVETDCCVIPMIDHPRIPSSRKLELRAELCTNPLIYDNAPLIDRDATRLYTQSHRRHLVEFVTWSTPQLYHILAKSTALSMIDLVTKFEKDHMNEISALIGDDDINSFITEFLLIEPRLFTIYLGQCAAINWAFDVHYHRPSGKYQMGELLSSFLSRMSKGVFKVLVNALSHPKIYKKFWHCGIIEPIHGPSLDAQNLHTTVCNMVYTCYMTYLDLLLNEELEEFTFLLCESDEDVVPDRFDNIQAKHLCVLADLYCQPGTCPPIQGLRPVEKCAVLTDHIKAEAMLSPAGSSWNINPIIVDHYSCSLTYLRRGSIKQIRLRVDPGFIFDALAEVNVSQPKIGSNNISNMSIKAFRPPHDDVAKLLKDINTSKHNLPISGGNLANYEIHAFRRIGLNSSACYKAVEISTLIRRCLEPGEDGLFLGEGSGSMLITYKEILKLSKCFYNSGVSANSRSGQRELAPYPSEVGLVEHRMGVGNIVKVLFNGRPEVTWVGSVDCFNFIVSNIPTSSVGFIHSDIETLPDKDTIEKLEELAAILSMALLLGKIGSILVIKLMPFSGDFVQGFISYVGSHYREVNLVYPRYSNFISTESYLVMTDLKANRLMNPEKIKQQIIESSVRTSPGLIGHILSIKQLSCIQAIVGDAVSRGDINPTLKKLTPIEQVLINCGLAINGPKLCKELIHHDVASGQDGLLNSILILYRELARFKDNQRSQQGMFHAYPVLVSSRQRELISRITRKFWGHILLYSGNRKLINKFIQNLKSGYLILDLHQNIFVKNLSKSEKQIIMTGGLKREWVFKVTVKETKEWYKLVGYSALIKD
Chain of MeV RdRp (P03422 whole entry partner): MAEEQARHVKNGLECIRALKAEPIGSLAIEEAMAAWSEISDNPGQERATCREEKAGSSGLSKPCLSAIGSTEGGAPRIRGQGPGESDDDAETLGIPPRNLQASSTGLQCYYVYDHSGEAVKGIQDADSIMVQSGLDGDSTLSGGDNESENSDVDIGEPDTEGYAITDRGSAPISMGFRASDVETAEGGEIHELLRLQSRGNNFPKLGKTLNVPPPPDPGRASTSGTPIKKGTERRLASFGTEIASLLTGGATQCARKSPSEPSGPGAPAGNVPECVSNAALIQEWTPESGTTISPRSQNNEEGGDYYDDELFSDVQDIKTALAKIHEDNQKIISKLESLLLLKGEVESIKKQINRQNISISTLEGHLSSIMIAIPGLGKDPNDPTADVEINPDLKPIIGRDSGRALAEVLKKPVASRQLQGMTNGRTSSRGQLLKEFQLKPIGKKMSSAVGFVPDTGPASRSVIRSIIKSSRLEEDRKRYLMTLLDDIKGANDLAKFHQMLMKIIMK
Chain of MeV RdRp (P0DXN6 whole entry partner): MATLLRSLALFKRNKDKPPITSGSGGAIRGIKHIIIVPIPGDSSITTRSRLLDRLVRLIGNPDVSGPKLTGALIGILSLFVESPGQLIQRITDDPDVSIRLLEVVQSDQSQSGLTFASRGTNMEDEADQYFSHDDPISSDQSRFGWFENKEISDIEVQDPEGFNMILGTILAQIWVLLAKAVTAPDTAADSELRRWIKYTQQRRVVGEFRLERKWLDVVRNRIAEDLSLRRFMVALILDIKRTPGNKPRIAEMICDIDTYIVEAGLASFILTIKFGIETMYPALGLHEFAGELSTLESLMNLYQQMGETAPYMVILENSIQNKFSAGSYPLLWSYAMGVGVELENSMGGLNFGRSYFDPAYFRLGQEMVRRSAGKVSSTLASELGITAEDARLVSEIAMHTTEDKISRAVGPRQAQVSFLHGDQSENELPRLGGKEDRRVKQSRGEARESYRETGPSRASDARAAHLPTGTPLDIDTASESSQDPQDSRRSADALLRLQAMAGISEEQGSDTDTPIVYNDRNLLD

Compound `COc1ccc(-n2c(SC(C)C(=O)Nc3ccc(C)cc3Cl)nc3ccccc32)cc1` (centres unmarked) [JMN3-003] has an EC50 ([1]; Influenza A virus, WSN, HT-1080, host cell HT1080 (Human), read-out: EC50, Inhibition of Influenza A/WSN) of 60 ± 2 nM, an EC50 ([1]; Influenza A virus, WSN, MDCK, read-out: EC50, Inhibition of Influenza A/WSN) of 10 nM and an EC50 ([1]; Influenza A virus, WSN, NIH3T3, host cell NIH-3T3 (Rodent-mouse), read-out: EC50, Inhibition of Influenza A/WSN) of over 10000 nM. For the same compound, the EC50 ([1]; Influenza A virus, WSN, genome copy numbers of released progeny particles by TaqMan RT-PCR, read-out: EC50, Influenza A/WSN) was 10 ± 8 nM, the EC50 ([1]; Influenza A virus, WSN, host cell BHK-21 (Rodent-Syrian hamster), read-out: EC50, Inhibition of Influenza A/WSN) was 80 ± 10 nM and the EC50 ([1]; Influenza A virus, WSN, host cell CHO (Rodent-Chinese hamster), read-out: EC50, Inhibition of Influenza A/WSN) was 70 ± 10 nM. It also gave an EC50 ([1]; Influenza A virus, WSN, host cell DF-1 (Avian-chicken), read-out: EC50, Inhibition of Influenza A/WSN) of over 10000 nM, an EC50 ([1]; Influenza A virus, WSN, host cell HeLa (Human), read-out: EC50, Inhibition of Influenza A/WSN) of 20 ± 10 nM and an EC50 ([1]; host cell MEL B16 (Rodent-mouse), read-out: EC50, Inhibition of Influenza A/WSN) of over 10000 nM. The EC50 [2] was 10 ± 3 nM, the EC50 [3] was 33 ± 31 nM and the EC50 [4] was 80 ± 10 nM. The “activity against vaccinia virus” value [5] was “to a lesser degree”, the CC50 at 24 h [6] was over 75000 nM and the CC50 at 24 h [7] was over 75000 nM. The CC50 at 24 h [8] was over 75000 nM, the CC50 at 24 h [9] was over 75000 nM and the “proliferation rates after removal of compound” value [10] was “proliferation rates resumed those of untreated control cells”. The “expression of virus-encoded proteins, orthomyxovirus infection” value [11] was “fully blocked”, the “antiviral effect of preincubation of viral particles (virucidal activity)” value [12] was “lacked any appreciable antiviral effect” and the “inhibition profile in time-of-addition experiment” value [13] was “very closely resembled the profile of the AS-136A RdRp blocker class”. The “reduction of viral mRNA and antigenome copy numbers relative to vehicle” value [14] was over 100 fold, the “drop in relative viral antigenome levels” value [15] was over 100 fold and the “reduction in genome copies of released progeny virions” value [15] was > 10,000 fold. The “concentration at which luciferase reporter expression was fully blocked” value [16] was “approximately 100 nM” and the “change of the tolerated dose” value [17] was “only marginal increases in the tolerated dose”.
